Assays:
BCDIN3D = target: T1, BCDIN3D (Homo sapiens, UniProt Q7Z5W3); assay: Methyl transferase scintillation proximity assay; format: biochemical; conditions: average of two measurements; for inhibition at 10 µM: read-out: MTases Inhibition (%)
T1 construct: purchased DiscoverX BROMOscan (bromodomains); SGC in-house methyltransferase panel
T1 sequence (Q7Z5W3 1-292): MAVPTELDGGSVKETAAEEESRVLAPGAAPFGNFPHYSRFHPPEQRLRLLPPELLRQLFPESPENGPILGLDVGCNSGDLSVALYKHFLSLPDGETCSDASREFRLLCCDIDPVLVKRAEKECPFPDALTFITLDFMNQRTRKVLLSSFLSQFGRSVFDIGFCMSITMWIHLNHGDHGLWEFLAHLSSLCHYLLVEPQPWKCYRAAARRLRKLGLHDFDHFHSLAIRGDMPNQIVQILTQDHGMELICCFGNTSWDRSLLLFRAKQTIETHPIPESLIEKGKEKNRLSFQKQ
In short: (§1)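 Methylation is monitored as incorporation of tritium from ^3H-SAM into a biotinylated substrate, with cofactor and substrate near apparent Km for every enzyme. After guanidine quench and 1 h plate capture, CPM is scaled between no-enzyme background and uninhibited control.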

G9A = target: T2, G9A (Homo sapiens, UniProt Q96KQ7); assay: Methyl transferase scintillation proximity assay; format: biochemical; conditions: average of two measurements; for inhibition at 10 µM: read-out: MTases Inhibition (%)
T2 construct: purchased DiscoverX BROMOscan (bromodomains); SGC in-house methyltransferase panel
T2 sequence (Q96KQ7 1-1210): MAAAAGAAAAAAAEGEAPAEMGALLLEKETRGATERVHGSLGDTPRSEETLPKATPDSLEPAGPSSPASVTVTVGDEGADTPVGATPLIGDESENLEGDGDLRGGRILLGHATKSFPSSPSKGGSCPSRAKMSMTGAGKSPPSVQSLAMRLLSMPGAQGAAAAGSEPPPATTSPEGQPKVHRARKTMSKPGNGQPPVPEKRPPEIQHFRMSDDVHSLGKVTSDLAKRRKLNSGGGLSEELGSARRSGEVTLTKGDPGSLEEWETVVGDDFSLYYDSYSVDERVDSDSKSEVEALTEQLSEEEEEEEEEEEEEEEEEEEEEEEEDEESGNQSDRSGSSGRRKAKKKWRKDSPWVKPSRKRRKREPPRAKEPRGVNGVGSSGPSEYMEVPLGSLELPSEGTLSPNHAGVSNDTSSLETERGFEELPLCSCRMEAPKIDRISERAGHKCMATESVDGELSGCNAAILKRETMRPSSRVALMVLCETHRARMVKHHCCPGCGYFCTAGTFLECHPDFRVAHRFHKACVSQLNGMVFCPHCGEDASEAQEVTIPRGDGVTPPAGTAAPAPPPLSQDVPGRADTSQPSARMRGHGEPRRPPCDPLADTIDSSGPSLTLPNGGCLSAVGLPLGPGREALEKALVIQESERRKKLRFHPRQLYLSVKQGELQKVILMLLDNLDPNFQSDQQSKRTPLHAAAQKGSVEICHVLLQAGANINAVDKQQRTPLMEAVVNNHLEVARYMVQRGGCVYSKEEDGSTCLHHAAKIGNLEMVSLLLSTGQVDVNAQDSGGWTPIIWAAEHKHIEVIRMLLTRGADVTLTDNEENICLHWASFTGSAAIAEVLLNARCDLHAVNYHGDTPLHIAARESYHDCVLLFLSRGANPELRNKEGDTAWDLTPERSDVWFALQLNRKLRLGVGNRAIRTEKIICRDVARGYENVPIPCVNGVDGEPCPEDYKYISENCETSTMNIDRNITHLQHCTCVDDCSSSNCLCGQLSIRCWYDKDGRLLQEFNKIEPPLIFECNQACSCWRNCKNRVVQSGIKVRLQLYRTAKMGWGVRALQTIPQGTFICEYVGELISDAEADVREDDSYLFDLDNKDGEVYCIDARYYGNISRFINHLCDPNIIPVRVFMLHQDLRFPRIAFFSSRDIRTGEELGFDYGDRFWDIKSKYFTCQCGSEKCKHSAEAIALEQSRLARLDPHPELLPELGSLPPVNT
In short: as §1

Compound	inhibition at 10 µM (BCDIN3D)	inhibition at 10 µM (G9A)	MTases Inhibition (%) (BCDIN3D; 10µM)	MTases Inhibition (%) (G9A; 10µM)
Cc1c(NC(=O)c2cc(C(N)=O)nc3cc(F)ccc23)c(C(F)(F)F)nn1Cc1ccc(C(C)(C)C)cc1 [BAY-588]	16%	3%		
COc1cc(Cl)c(C(=O)N[C@@H](CN[C@H]2CC[C@@H](N)CC2)Cc2ccc(C#N)cc2)cc1-c1ccc(CN[C@H](C)c2ccc(C)cc2)o1 [BAY-850]	28%	7%		
Cc1c(NC(=O)c2cc(C(N)=O)nc3cc(F)ccc23)c(C(F)(F)F)nn1Cc1ccc(C#N)cc1 [BAY-876]	17%	-3%		
CN1C[C@H](Nc2cnn(C)c(=O)c2Br)C[C@H](c2ccccc2)C1 [GSK4027]	14%	1%		
COc1ccccc1C(=O)Nc1cc2c(cc1N1CCNC[C@H]1C)n(C)c(=O)n2C [GSK6853]			5%	-2%
CO[C@H]1CNC[C@@H](OCC2CCC(F)(F)CC2)[C@@H]1Nc1ncc(-c2cncc(C)c2)c2cc(C)c(=O)[nH]c12 [GSK8814]	7%	-2%		
Cc1nnc2c3ccccc3c(N[C@@H](C)[C@H](c3ccccc3)N(C)C)nn12 [L-Moses]	9%	-3%		
CN(C)CCCOc1ccc(-c2cc(NCCCn3cccn3)nc(S(C)(=O)=O)n2)cc1 [TP-238]	4%	7%		
